Columns and labels:
[1] = refractive index (Na D-line) (dimensionless); conditions: 293.15 K; 101.33 kPa; Liquid; Standard Abbe refractometry
[2] = wn = mass fraction of the nth substance listed; conditions: 100 kPa, Liquid; for viscosity: Falling or rolling sphere viscometry; for mass density: Vibrating tube method

CO [methanol]
Conditions | refractive index
[1] | 1.32858

CO [methanol] + O
[2]
Conditions | mass density, w1 = 0.1 [kg/m3] | mass density, w1 = 0.2 [kg/m3] | mass density, w1 = 0.3001 [kg/m3] | mass density, w1 = 0.4 [kg/m3] | mass density, w1 = 0.4999 [kg/m3] | viscosity, w1 = 0.1 [mPa·s] | viscosity, w1 = 0.2 [mPa·s] | viscosity, w1 = 0.3001 [mPa·s] | viscosity, w1 = 0.4 [mPa·s] | viscosity, w1 = 0.4999 [mPa·s]
273.15 K | 984.19 | 972.46 | 960.61 | 945.89 | 928.63 | 2.575 | 3.315 | 3.636 | 3.623 | 3.312
293.15 K | 981.29 | 966.62 | 951.49 | 934.6 | 915.53 | 1.316 | 1.623 | 1.782 | 1.824 | 1.747

O [water] + CO
[2], w2 = 0
Conditions | mass density [kg/m3] | viscosity [mPa·s]
275.15 K | 999.94 | 1.661
293.15 K | – | 0.998
